Measured values from patent publication US20210254000A1, “PROCESS FOR PRODUCING A T CELL COMPOSITION” (Juno Therapeutics, Inc., priority 2017, published 2021).

Columns and labels:
Assay type in all cases: cell-based, human
[1] = system: anti-CD19 CAR-T cells co-cultured with irradiated K562-CD19 target cells; assay: Cytokine secretion after antigen stimulation (Luminex); settings: cells expanded with 200 nM PI-103 or 1 μM Compound 63; E:T 1:1, ~16 hours
Description: (§1) Separate compositions of CD4+ and CD8+ cells were isolated from three human donors, activated and transduced with a viral vector encoding an anti-CD19 CAR substantially as described in Example 2. After transduction, the CD4+ and CD8+ T cells derived from each donor were separately incubated for 8 days in the presence of a mTOR kinase inhibitor to expand T cells substantially as described in Example 2, except in the presence of 200 nM PI-103, 1 μM Compound 63, or with DMSO vehicle or media only controls. CD4+ and CD8+ T cells from each donor were then separately harvested, formulated, and cryofrozen. The cryofrozen engineered CD4+ and CD8+ T cells were thawed, washed to remove compound, and cells from the same donor were then combined at a ratio of 1:1 viable CD4+/CAR+ to viable CD8+/CAR+ T cells to produce an expanded anti-CD19 CAR-T cell composition containing CD4+ and CD8+ T cells. Functional activities of the generated anti-CD19 CAR-T cell compositions were assessed.
To measure cytokines following antigen stimulation, cells from the generated anti-CD19 CAR-T cell compositions were co-cultured with irradiated K562-CD19 target cells or K562 parental target cells at an effector:target cell ratio of 1:1. After overnight (˜16 hours) culture, cell culture supernatants were harvested and TNF-alpha, IFN-gamma, and IL-2 cytokine production were measured using a Luminex Multiplex Assay. The fold-change of cytokine production observed in co-culture supernatants was determined from generated anti-CD19 CAR-T cell compositions expanded in the presence of PI-103, Compound 63, or DMSO vehicle compared to cells expanded in media only.

[2] = system: CAR-T cells incubated with CD19-expressing target cells; assay: Intracellular and secreted cytokines of CAR-T cells (mixed CD4+/CD8+ process); settings: for levels of secreted cytokines (IL-2, TNF-alpha, IFN-gamma) in supernatants: 20 hours with CD19-antigen expressing cells, ELISA; for polyfunctional effector cytokine profiles (IL-2, TNF-alpha, IFN-gamma) compared to DMSO: CD8+ and CD4+ subsets, primary or secondary stimulation, golgi inhibitor 5 hours
Description: Separate compositions of CD4+ and CD8+ cells were selected from isolated PBMCs from a leukapheresis sample from the same human donor by immunoaffinity based selection, and the selected cell compositions were cryofrozen. The separate compositions of CD4+ and CD8+ T cells were subsequently thawed and mixed at a ratio of 1:1 of viable CD4+ T cells to viable CD8+ T cells. In this study, the mixed CD4+ and CD8+ cell populations were incubated in the presence of Compound 63, PI103 or no inhibitor (DMSO vehicle control) beginning at the initiation of stimulation. In more detail, the mixed CD4+ and CD8+ T cell composition was stimulated (in the presence or absence of an inhibitor, as indicated) in the presence of paramagnetic polystyrene-coated beads with attached anti-CD3 and anti-CD28 antibodies for between 18 to 30 hours, and were then transduced with a lentiviral vector encoding an anti-CD19 CAR. The CAR contained an scFv antigen-binding domain specific for CD19 (derived from FMC63), a CD28 transmembrane region, a 4-1BB costimulatory signaling region, and a CD3-zeta derived intracellular signaling domain. The cells were then expanded in the presence of cytokines typically for approximately 6-7 days. Beginning with stimulation and for the duration of the process, the media contained DMSO (vehicle control), 2 μM PI103 or 1 μM Compound 63. The vehicle control contained DMSO at a volume to match that in the mTOR inhibitor-treated samples. Expanded cells were cryopreserved. For assessment, the cryopreserved CAR-T cells were thawed and washed prior to assessment in assay media without supportive cytokines and without inhibitor or vehicle.
Intracellular cytokine levels were monitored in cells of co-cultures incubated with freshly thawed generated CAR-T cells or CAR-T cells after secondary restimulation with CD19-expressing target cells. CAR-T cells were incubated with target-expressing cells in the presence of golgi inhibitor for 5 hours. Intracellular expression of IL-2, TNF-alpha and IFN-gamma was determined and a polyfunctional score was calculated by gating for cumulative CAR-T cells positive for IL-2 and any combination of IFN-gamma and TNF-alpha. […] Generated CAR-T cells were also cultured with CD19-antigen expressing cells for 20 hours and levels of IL-2, TNF-alpha and IFN-gamma were assessed in cell culture supernatants by ELISA.

[3] = system: CD19-expressing target cells; assay: Cytolytic activity of CAR-T cells (mixed CD4+/CD8+ process); settings: CAR-T cells prepared with 2 μM PI103 or 1 μM Compound 63; freshly thawed or day 14; 3:1 effector to target
Description: Separate compositions of CD4+ and CD8+ cells were selected from isolated PBMCs from a leukapheresis sample from the same human donor by immunoaffinity based selection, and the selected cell compositions were cryofrozen. The separate compositions of CD4+ and CD8+ T cells were subsequently thawed and mixed at a ratio of 1:1 of viable CD4+ T cells to viable CD8+ T cells. In this study, the mixed CD4+ and CD8+ cell populations were incubated in the presence of Compound 63, PI103 or no inhibitor (DMSO vehicle control) beginning at the initiation of stimulation. In more detail, the mixed CD4+ and CD8+ T cell composition was stimulated (in the presence or absence of an inhibitor, as indicated) in the presence of paramagnetic polystyrene-coated beads with attached anti-CD3 and anti-CD28 antibodies for between 18 to 30 hours, and were then transduced with a lentiviral vector encoding an anti-CD19 CAR. […]
Cytolytic activity of the generated CAR-T cells was assessed by culturing the generated CAR-T cells, either freshly thawed or at day 14 of restimulation from above, with CD19-expressing target cells at a 3:1 effector to target ratio. Target cell death was quantitated over time. The tumor cell growth area under the curve (AUC) of signal over time for each concentration was determined. A killing index was calculated as the inverse of the area under the tumor cell growth curve (1/AUC).

CD8+ CAR-T cells = assay: Glycolytic metabolism (ECAR, Seahorse) of CD8+ CAR-T cells expanded with inhibitor; settings: CD8+ CAR-T cells expanded with 1 μM Compound 63; 3 donors
Description: as §1, with “The cryofrozen engineered CD4+ and CD8+ T cells were thawed, washed to remove compound, and cells from the same donor were then combined at a ratio of 1:1 viable CD4+/CAR+ to viable CD8+/CAR+ T cells to produce an expanded anti-CD19 CAR-T cell composition containing CD4+ and CD8+ T cells.” left out
Changes in cellular glycolytic metabolism in response to T cell receptor (TCR) stimulation were measured in CD8+ CAR-T cells from the generated anti-CD19 CAR-T cell composition prior to combining with CD4+ T cells. Glycolytic metabolism was assessed by measuring the extracellular acidification rate (ECAR) in CD8+ CAR-T cells in real time with an extracellular flux bioanalyzer (Seahorse Bioanalyzer, Agilent Technologies). […] Area under the curve (AUC) for the ECAR rates (mpH/min) from 0 to 76 minutes of the assay and maximal ECAR glycolytic burst ratio relative to media controls (n=3 donors) were determined.

[4] = system: anti-CD19 CAR-T cells stimulated with irradiated K562-CD19 target cells; assay: Secondary cytokine response after anti-idiotype bead expansion; settings: for secondary cytokine production following subsequent stimulation with antigen: cells harvested at day 11 after anti-idiotype bead expansion, K562-CD19 1:1, approximately 16 hours
phospho-S6 = assay: Antigen-dependent CAR signaling (phospho-S6) in expanded CAR-T cells; settings: cells expanded with 200 nM PI-103 or 1 μM Compound 63, washed; 20 hours co-culture 1:1
Description: as §1
Antigen-dependent signaling of CAR-T cells among generated anti-CD19 CAR-T cell compositions was assessed by monitoring activation of phospho-S6. […] After 20 hours, cells were assessed, for intracellular S6 phosphorylation and co-stained for surface expression of CD4 or CD8, by flow cytometry.

| Structure (SMILES) | cytokine production (TNF-alpha, IFN-gamma, IL-2) compared to control cells [1] | production of IFN-gamma compared to control cells [1] | levels of secreted cytokines (IL-2, TNF-alpha, IFN-gamma) in supernatants [2] | polyfunctional effector cytokine profiles (IL-2, TNF-alpha, IFN-gamma) compared to DMSO [2] | target cell killing (killing index 1/AUC) compared to CAR-T cells prepared with DMSO [3] | glycolytic burst upon TCR stimulation (ECAR AUC, ECAR ratio) relative to media control (CD8+ CAR-T cells) | secondary cytokine production following subsequent stimulation with antigen [4] | frequency of CD8+ T cells that were CD107a+IFNγ+ ([4]; some donor-derived cells, day 11, Golgi Inhibitor 4 hours) | phospho-S6 staining after antigen stimulation vs DMSO vehicle or media only (phospho-S6) |
| --- | --- | --- | --- | --- | --- | --- | --- | --- | --- |
| CC(C)c1ccccc1-n1c(=O)[nH]c2c(C(N)=O)nc(-c3cccc(O)c3)nc21 [Compound 63, 2-(3-Hydroxyphenyl)-9-(2-isopropylphenyl)-8-oxo-8,9-dihydro-7H-purine-6-carboxamide] | improvements in cytokine production | improved | increased levels of secreted cytokines | improved polyfunctional effector cytokine profiles | improved target cell killing | trend towards enhanced glycolytic burst | improved secondary cytokine production | increased frequency of CD8+ T cells that were CD107a+IFNγ+ cells | similar |
| Oc1cccc(-c2nc(N3CCOCC3)c3oc4ncccc4c3n2)c1 [PI-103, reference compound] | improvements in cytokine production | improved | increased levels of secreted cytokines | improved polyfunctional effector cytokine profiles | improved target cell killing |  | improved secondary cytokine production |  | similar |
